Measured values as given in ChEMBL document CHEMBL1201862, “PubChem BioAssay data set” (2004).
“And” between values parts separate entries of the source, which are not always exact repeats. Identical values can stand only once.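 All cell lines were grown in 96-well plates and treated with compound for 48 hours. GI50 marks 50% less growth.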 The source made the active and inactive calls. No stated cut-off is given here; in the data, active = GI50 up to about 1.1 µM and inactive = higher.

Assays:
Assay in all cases: NCI-60 cell line screen, 48 h
RXF 393 = test system: RXF 393
NCI-H522 = test system: NCI-H522
KM12 = test system: KM12
LOX IMVI = test system: LOX IMVI
DU-145 = test system: DU-145
HCT-15 = test system: HCT-15
SF-268 = test system: SF-268
OVCAR-3 = test system: OVCAR-3
SK-OV-3 = test system: SK-OV-3
ACHN = test system: ACHN
TK-10 = test system: TK-10
MDA-MB-435 = test system: MDA-MB-435
SF-539 = test system: SF-539
OVCAR-5 = test system: OVCAR-5
CAKI-1 = test system: CAKI-1
UACC-257 = test system: UACC-257
SR = test system: SR
COLO 205 = test system: COLO 205
HL-60 = test system: HL-60
MOLT-4 = test system: MOLT-4

| SMILES | GI50 (RXF 393) | GI50 (NCI-H522) | GI50 (KM12) | GI50 (LOX IMVI) | GI50 (DU-145) | GI50 (HCT-15) [µM] | GI50 (SF-268) | GI50 (OVCAR-3) | GI50 (SK-OV-3) | GI50 (ACHN) | GI50 (TK-10) | GI50 (MDA-MB-435) | GI50 (SF-539) | GI50 (OVCAR-5) | GI50 (CAKI-1) | GI50 (UACC-257) | GI50 (SR) | GI50 (COLO 205) | GI50 (HL-60) | GI50 (MOLT-4) |
| --- | --- | --- | --- | --- | --- | --- | --- | --- | --- | --- | --- | --- | --- | --- | --- | --- | --- | --- | --- | --- |
| O=C(O[C@H]1CCN2C[C@H]3C[C@H](CN4C(=O)CCC[C@H]34)[C@@H]2C1)c1ccc(O)cc1 | > 100 µM (inactive) | > 100 µM (inactive) | > 100 µM (inactive) | > 100 µM (inactive) | > 100 µM (inactive) | > 100 | > 100 µM (inactive) | > 100 µM (inactive) | > 100 µM (inactive) | > 100 µM (inactive) | > 100 µM (inactive) | > 100 µM (inactive) | > 100 µM (inactive) | > 100 µM (inactive) | > 100 µM (inactive) | > 100 µM (inactive) | > 100 µM (inactive) | > 100 µM (inactive) |  |  |
| COc1cc(OC2OC(CO)C(O)C(O)C2O)c2c(c1)O[C@@H]1[C@H](O)Oc3cc(OC)c(OC)cc3[C@]1(O)C2=O (stereo partly drawn) |  | > 25 µM (inactive) | > 25 µM (inactive) | > 25 µM (inactive) | > 25 µM (inactive) | > 25 | > 25 µM (inactive) | > 25 µM (inactive) | > 25 µM (inactive) | > 25 µM (inactive) | > 25 µM (inactive) | > 25 µM (inactive) | > 25 µM (inactive) | > 25 µM (inactive) | > 25 µM (inactive) | > 25 µM (inactive) | > 25 µM (inactive) | > 25 µM (inactive) | > 25 µM (inactive) | > 25 µM (inactive) |
| CC12CN(CC[N+](C)(C)C)CC1(C)C1CCC2O1 (stereo not drawn) | > 100 µM (inactive) | > 100 µM (inactive) | > 100 µM (inactive) | > 100 µM (inactive) | > 100 µM (inactive) | > 100 | > 100 µM (inactive) | > 100 µM (inactive) | > 100 µM (inactive) | > 100 µM (inactive) | > 100 µM (inactive) | > 100 µM (inactive) | > 100 µM (inactive) | > 100 µM (inactive) | > 100 µM (inactive) | > 100 µM (inactive) | > 100 µM (inactive) | > 100 µM (inactive) |  | > 100 µM (inactive) |
| CCCCCCCCCCCCC(=O)NCC(=O)NC(Cc1ccccc1)C(=O)Oc1ccc([N+](=O)[O-])cc1 (stereo not drawn) | 91.4 µM (inactive) | 29.4 µM (inactive) | 55.6 µM (inactive) | 36.2 µM (inactive) | > 100 µM (inactive) | 38.1 | 31.9 µM (inactive) | > 100 µM (inactive) |  | > 100 µM (inactive) | > 100 µM (inactive) | 65.8 µM (inactive) | 91.8 µM (inactive) | > 100 µM (inactive) | > 100 µM (inactive) | > 100 µM (inactive) | 33.7 µM (inactive) | 16.7 µM (inactive) | 64.4 µM (inactive) |  |
| COc1cc(OCc2ccccc2)c2c(CCC(=O)O)cc(=O)oc2c1.COc1cc(OCc2ccccc2)cc2oc(=O)cc(CCC(=O)O)c12 |  | 42.5 µM (inactive) | 43.8 µM (inactive) | 20.9 µM (inactive) | 64.6 µM (inactive) | 27 | 61 µM (inactive) | 31 µM (inactive) | 82.4 µM (inactive) | 37.5 µM (inactive) | 31.6 µM (inactive) | 61.7 µM (inactive) | 71.6 µM (inactive) | > 100 µM (inactive) | 28.6 µM (inactive) | > 100 µM (inactive) | 38.9 µM (inactive) | 67.3 µM (inactive) | 34.1 µM (inactive) | 28.1 µM (inactive) |
| Nc1ncn(C/C=C/c2ccccc2)c2ncnc1-2 | > 100 µM (inactive) | 78.2 µM (inactive) | > 100 µM (inactive) | > 100 µM (inactive) | > 100 µM (inactive) | > 100 | > 100 µM (inactive) | > 100 µM (inactive) | > 100 µM (inactive) | > 100 µM (inactive) | > 100 µM (inactive) | > 100 µM (inactive) | > 100 µM (inactive) | > 100 µM (inactive) | > 100 µM (inactive) | > 100 µM (inactive) | 21.4 µM (inactive) | > 100 µM (inactive) |  | 16.6 µM (inactive) |
| CC(=O)OCC(OC(C)=O)C(OC(C)=O)C(/C=N\Nc1nc2ccccc2c(=O)[nH]1)OC(C)=O (stereo not drawn) |  |  | > 100 µM (inactive) | > 100 µM (inactive) | > 100 µM (inactive) | > 100 | > 100 µM (inactive) | > 100 µM (inactive) | > 100 µM (inactive) | > 100 µM (inactive) | > 100 µM (inactive) | > 100 µM (inactive) | > 100 µM (inactive) | > 100 µM (inactive) | > 100 µM (inactive) | > 100 µM (inactive) | > 100 µM (inactive) | > 100 µM (inactive) | 67.9 µM (inactive) and 85.9 µM (inactive) | 86.9 µM (inactive) |
| NNC(=O)c1ccccc1Nc1nc(-c2cccs2)nc2ccc(Br)cc12 |  | > 100 µM (inactive) | 67.5 µM (inactive) | 44.9 µM (inactive) | > 100 µM (inactive) | 14.7 | 31.1 µM (inactive) | 25.9 µM (inactive) | > 100 µM (inactive) | > 100 µM (inactive) | > 100 µM (inactive) | 77.4 µM (inactive) | > 100 µM (inactive) | > 100 µM (inactive) | 74.3 µM (inactive) | > 100 µM (inactive) | > 100 µM (inactive) | > 100 µM (inactive) | 71.3 µM (inactive) | > 100 µM (inactive) |
| CCOP(=O)(OCC)C(c1ccccc1)N(C(=O)NC(F)(F)F)c1cccc(F)c1 (stereo not drawn) | 64.7 µM (inactive) | > 100 µM (inactive) | > 100 µM (inactive) | > 100 µM (inactive) | > 100 µM (inactive) | 81.5 | > 100 µM (inactive) | > 100 µM (inactive) |  | > 100 µM (inactive) | > 100 µM (inactive) | > 100 µM (inactive) | > 100 µM (inactive) | > 10 µM (inactive) | > 100 µM (inactive) | > 100 µM (inactive) | > 100 µM (inactive) | > 100 µM (inactive) | > 100 µM (inactive) | 81.1 µM (inactive) |
| O=C1CC[C@@]2(O)[C@H]3Cc4ccc(-c5cccc(O)c5)c5c4[C@@]2(CCN3CC2CC2)[C@H]1O5 | 17.3 µM (inactive) | 16.1 µM (inactive) | 10 µM (inactive) | 12.9 µM (inactive) | 22.6 µM (inactive) | 23.9 | 22.3 µM (inactive) | 22 µM (inactive) |  | 25.4 µM (inactive) | 1.01 µM (active) | 14 µM (inactive) | 18.9 µM (inactive) | 13.6 µM (inactive) | 37.6 µM (inactive) | 1.01 µM (active) | 26.3 µM (inactive) | 21 µM (inactive) | 0.0553 µM (active) | 22.9 µM (inactive) |
| O=C(Nc1cccc(F)c1)c1cc2ccc(O)cc2o/c1=N\c1cccc(F)c1 |  | 2.99 µM (inactive) | 6.95 µM (inactive) | 3.27 µM (inactive) | 4.27 µM (inactive) | 3.15 | 3.03 µM (inactive) | 4.91 µM (inactive) | 13.2 µM (inactive) | 4.88 µM (inactive) |  | 5.12 µM (inactive) | 19.8 µM (inactive) | 34 µM (inactive) | 15.3 µM (inactive) | 9.68 µM (inactive) | 4.5 µM (inactive) | > 100 µM (inactive) | 2.65 µM (inactive) | 2.45 µM (inactive) |
| CC1CNC(c2cccc(OCc3ccc(COc4cccc(C5=NC(C)CN5)c4)cc3)c2)=N1 (stereo not drawn) | 40.7 µM (inactive) | 23 µM (inactive) | 22.7 µM (inactive) | 22 µM (inactive) | 50.8 µM (inactive) | > 100 | 35.6 µM (inactive) | 67.9 µM (inactive) | > 100 µM (inactive) | > 100 µM (inactive) | 27.1 µM (inactive) | 45.5 µM (inactive) | 16.3 µM (inactive) | 40.1 µM (inactive) | > 100 µM (inactive) | 12.6 µM (inactive) |  | 17 µM (inactive) | 23.2 µM (inactive) | 19.3 µM (inactive) |
| O=S(=O)(/N=c1\[nH]c(-c2cc(O)c(O)c(O)c2)cs1)c1ccc(Cl)cc1Cl | 25.5 µM (inactive) | 17.9 µM (inactive) | 15.2 µM (inactive) | 12.8 µM (inactive) | 20.3 µM (inactive) | 17.2 | 20.5 µM (inactive) | 17.4 µM (inactive) | 72.6 µM (inactive) | 14.6 µM (inactive) | 4.65 µM (inactive) | 22.2 µM (inactive) | 27.6 µM (inactive) | 18.2 µM (inactive) | 17.3 µM (inactive) | 16 µM (inactive) |  | 22 µM (inactive) | 41.8 µM (inactive) | 20.7 µM (inactive) |
| c1nncn1C12C3C4C5C3C1C5C42 (stereo not drawn) |  | > 100 µM (inactive) | > 100 µM (inactive) | > 100 µM (inactive) | > 100 µM (inactive) | > 100 | > 100 µM (inactive) |  | > 100 µM (inactive) | > 100 µM (inactive) | > 100 µM (inactive) | > 100 µM (inactive) | > 100 µM (inactive) | > 100 µM (inactive) |  | > 100 µM (inactive) | > 100 µM (inactive) | > 100 µM (inactive) | > 100 µM (inactive) | > 100 µM (inactive) |
| C#CCOC(=O)C(N)CCCNC(=N)N (stereo not drawn) | > 100 µM (inactive) | > 100 µM (inactive) | > 100 µM (inactive) | > 100 µM (inactive) | > 100 µM (inactive) | > 100 | > 100 µM (inactive) |  |  | > 100 µM (inactive) | > 100 µM (inactive) | > 100 µM (inactive) | > 100 µM (inactive) | > 100 µM (inactive) | > 100 µM (inactive) | > 100 µM (inactive) | > 100 µM (inactive) | > 100 µM (inactive) | > 100 µM (inactive) | > 100 µM (inactive) |
